# Measurements published in ChEMBL document CHEMBL1201862, “PubChem BioAssay data set” (2004).
#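 Exposure lasted 48 hours, with cells grown in 96-well plates and compounds tested at five concentrations. GI50 is the concentration that inhibits growth by half.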 Activity calls are given as the source filed them. Cut-off read from the data, not from the text of the source: active = GI50 up to about 1.1 µM and inactive = higher.
# Legend:
# Experiment in all cases: DTP human tumour cell line panel, 48 h
# 786-0 = test system: 786-0
# A498 = test system: A498
# A549 = test system: A549
# ACHN = test system: ACHN
# BT-549 = test system: BT-549
# CAKI-1 = test system: CAKI-1
# CCRF-CEM = test system: CCRF-CEM
# COLO 205 = test system: COLO 205
# DU-145 = test system: DU-145
# EKVX = test system: EKVX
# HCC 2998 = test system: HCC 2998
# HCT-116 = test system: HCT-116
# HCT-15 = test system: HCT-15
# HL-60 = test system: HL-60
# HOP-92 = test system: HOP-92
# HT-29 = test system: HT-29
# Hs-578T = test system: Hs-578T
# IGROV-1 = test system: IGROV-1
# K562 = test system: K562
# KM12 = test system: KM12
# LOX IMVI = test system: LOX IMVI
# M14 = test system: M14
# MCF7 = test system: MCF7
# MDA-MB-231 = test system: MDA-MB-231
# MDA-MB-435 = test system: MDA-MB-435
# MDA-N = test system: MDA-N
# MOLT-4 = test system: MOLT-4
# Malme-3M = test system: Malme-3M
# NCI-H226 = test system: NCI-H226
# NCI-H23 = test system: NCI-H23
# NCI-H460 = test system: NCI-H460
# NCI-H522 = test system: NCI-H522
# NCI/ADR-RES = test system: NCI/ADR-RES
# OVCAR-4 = test system: OVCAR-4
# OVCAR-5 = test system: OVCAR-5
# OVCAR-8 = test system: OVCAR-8
# PC-3 = test system: PC-3
# RPMI-8226 = test system: RPMI-8226
# RXF 393 = test system: RXF 393
# SF-268 = test system: SF-268
# SF-539 = test system: SF-539
# SK-MEL-28 = test system: SK-MEL-28
# SK-MEL-2 = test system: SK-MEL-2
# SK-MEL-5 = test system: SK-MEL-5
# SN12C = test system: SN12C
# SNB-19 = test system: SNB-19
# SNB-75 = test system: SNB-75
# SR = test system: SR
# SW-620 = test system: SW-620
# T47D = test system: T47D
# TK-10 = test system: TK-10
# U-251 = test system: U-251
# UACC-257 = test system: UACC-257
# UACC-62 = test system: UACC-62
# UO-31 = test system: UO-31
# HOP-62 = test system: HOP-62
# OVCAR-3 = test system: OVCAR-3
# SF-295 = test system: SF-295
# SK-OV-3 = test system: SK-OV-3
compound,measurement,setting,value
O=C1CSC2(CC(/C=C/c3cccc([N+](=O)[O-])c3)=NN2c2cccc(S(=O)(=O)O)c2)N1c1nc2ccccc2s1 (stereo not given),GI50,786-0,18 µM (inactive)
same,GI50,A498,20.4 µM (inactive)
same,GI50,A549,25.8 µM (inactive)
same,GI50,ACHN,25.8 µM (inactive)
same,GI50,BT-549,16.3 µM (inactive)
same,GI50,CAKI-1,49.7 µM (inactive)
same,GI50,CCRF-CEM,20.7 µM (inactive)
same,GI50,COLO 205,50.8 µM (inactive)
same,GI50,DU-145,19.6 µM (inactive)
same,GI50,EKVX,44.8 µM (inactive)
same,GI50,HCC 2998,35.6 µM (inactive)
same,GI50,HCT-116,32.6 µM (inactive)
same,GI50,HCT-15,18.1 µM
same,GI50,HL-60,28.1 µM (inactive)
same,GI50,HOP-92,9.46 µM (inactive)
same,GI50,HT-29,31.4 µM (inactive)
same,GI50,Hs-578T,55.3 µM (inactive)
same,GI50,IGROV-1,13.9 µM (inactive)
same,GI50,K562,28.6 µM (inactive)
same,GI50,KM12,22 µM (inactive)
same,GI50,LOX IMVI,13.6 µM (inactive)
same,GI50,M14,30.7 µM (inactive)
same,GI50,MCF7,17.6 µM (inactive)
same,GI50,MDA-MB-231,19.1 µM (inactive)
same,GI50,MDA-MB-435,18.5 µM (inactive)
same,GI50,MDA-N,25.1 µM (inactive)
same,GI50,MOLT-4,22.4 µM (inactive)
same,GI50,Malme-3M,51.3 µM (inactive)
same,GI50,NCI-H226,25.4 µM (inactive)
same,GI50,NCI-H23,16.7 µM (inactive)
same,GI50,NCI-H460,21.2 µM (inactive)
same,GI50,NCI-H522,18.3 µM (inactive)
same,GI50,NCI/ADR-RES,22.5 µM (inactive)
same,GI50,OVCAR-4,25.2 µM (inactive)
same,GI50,OVCAR-5,23.4 µM (inactive)
same,GI50,OVCAR-8,13.8 µM (inactive)
same,GI50,PC-3,21.4 µM (inactive)
same,GI50,RPMI-8226,17.4 µM (inactive)
same,GI50,RXF 393,34.2 µM (inactive)
same,GI50,SF-268,26 µM (inactive)
same,GI50,SF-539,29.6 µM (inactive)
same,GI50,SK-MEL-28,57 µM (inactive)
same,GI50,SK-MEL-2,22.9 µM (inactive)
same,GI50,SK-MEL-5,28.1 µM (inactive)
same,GI50,SN12C,22.4 µM (inactive)
same,GI50,SNB-19,21 µM (inactive)
same,GI50,SNB-75,20 µM (inactive)
same,GI50,SR,19.6 µM (inactive)
same,GI50,SW-620,26.8 µM (inactive)
same,GI50,T47D,24.6 µM (inactive)
same,GI50,TK-10,20 µM (inactive)
same,GI50,U-251,17.6 µM (inactive)
same,GI50,UACC-257,38.9 µM (inactive)
same,GI50,UACC-62,19.1 µM (inactive)
same,GI50,UO-31,19.6 µM (inactive)
CC(C)Oc1cc2c(cc1O)CC[C@@H]1[C@@H]2CC[C@]2(C)[C@@H](O)CC[C@@H]12,GI50,786-0,4.65 µM (inactive)
same,GI50,A498,6.65 µM (inactive)
same,GI50,A549,5.52 µM (inactive)
same,GI50,ACHN,9.89 µM (inactive)
same,GI50,BT-549,5.71 µM (inactive)
same,GI50,CAKI-1,1.52 µM (inactive)
same,GI50,CCRF-CEM,2.9 µM (inactive)
same,GI50,COLO 205,20 µM (inactive)
same,GI50,DU-145,7.28 µM (inactive)
same,GI50,EKVX,12.7 µM (inactive)
same,GI50,HCC 2998,5.26 µM (inactive)
same,GI50,HCT-116,3.33 µM (inactive)
same,GI50,HCT-15,1.61 µM
same,GI50,HL-60,1.71 µM (inactive)
same,GI50,HOP-62,4.15 µM (inactive)
same,GI50,HOP-92,11.2 µM (inactive)
same,GI50,HT-29,9.84 µM (inactive)
same,GI50,Hs-578T,2.38 µM (inactive)
same,GI50,IGROV-1,6.14 µM (inactive)
same,GI50,K562,1.51 µM (inactive)
same,GI50,KM12,4.2 µM (inactive)
same,GI50,LOX IMVI,4.58 µM (inactive)
same,GI50,M14,3.79 µM (inactive)
same,GI50,MCF7,2.25 µM (inactive)
same,GI50,MDA-MB-231,8.36 µM (inactive)
same,GI50,MDA-MB-435,0.687 µM (active)
same,GI50,MDA-N,0.424 µM (active)
same,GI50,MOLT-4,4.74 µM (inactive)
same,GI50,Malme-3M,3.82 µM (inactive)
same,GI50,NCI-H226,3.23 µM (inactive)
same,GI50,NCI-H23,7.19 µM (inactive)
same,GI50,NCI-H460,3.28 µM (inactive)
same,GI50,NCI-H522,1.58 µM (inactive)
same,GI50,NCI/ADR-RES,2.07 µM (inactive)
same,GI50,OVCAR-3,2.81 µM (inactive)
same,GI50,OVCAR-4,9.64 µM (inactive)
same,GI50,OVCAR-5,27.5 µM (inactive)
same,GI50,OVCAR-8,8.75 µM (inactive)
same,GI50,PC-3,8.97 µM (inactive)
same,GI50,RPMI-8226,4.29 µM (inactive)
same,GI50,RXF 393,3.82 µM (inactive)
same,GI50,SF-268,5.93 µM (inactive)
same,GI50,SF-295,3 µM (inactive)
same,GI50,SF-539,2.42 µM (inactive)
same,GI50,SK-MEL-28,8.3 µM (inactive)
same,GI50,SK-MEL-5,3.01 µM (inactive)
same,GI50,SK-OV-3,4.67 µM (inactive)
same,GI50,SN12C,5.66 µM (inactive)
same,GI50,SNB-19,5.31 µM (inactive)
same,GI50,SNB-75,4.69 µM (inactive)
same,GI50,SR,0.575 µM (active)
same,GI50,SW-620,2.72 µM (inactive)
same,GI50,T47D,4.68 µM (inactive)
same,GI50,TK-10,11 µM (inactive)
same,GI50,U-251,13.3 µM (inactive)
same,GI50,UACC-257,3.99 µM (inactive)
same,GI50,UACC-62,2 µM (inactive)
same,GI50,UO-31,6.46 µM (inactive)
COc1ccc2[nH]c(S(=O)(=O)N3CC(CCl)c4ccc(N)cc43)cc2c1 (stereo not given),GI50,786-0,0.0771 µM (active)
same,GI50,A498,11.2 µM (inactive)
same,GI50,A549,0.146 µM (active)
same,GI50,ACHN,8.91 µM (inactive)
same,GI50,BT-549,6.55 µM (inactive)
same,GI50,CAKI-1,0.0254 µM (active)
same,GI50,CCRF-CEM,0.362 µM (active)
same,GI50,COLO 205,4.42 µM (inactive)
same,GI50,DU-145,0.429 µM (active)
same,GI50,EKVX,1.85 µM (inactive)
same,GI50,HCC 2998,2.94 µM (inactive)
same,GI50,HCT-116,0.0269 µM (active)
same,GI50,HCT-15,< 0.0254 µM
same,GI50,HL-60,< 0.01 µM (active)
same,GI50,HOP-62,0.475 µM (active)
same,GI50,HOP-92,13.7 µM (inactive)
same,GI50,HT-29,1.65 µM (inactive)
same,GI50,Hs-578T,0.0953 µM (active)
same,GI50,IGROV-1,0.0547 µM (active)
same,GI50,K562,< 0.01 µM (active)
same,GI50,KM12,< 0.01 µM (active)
same,GI50,LOX IMVI,< 0.0229 µM (active)
same,GI50,M14,0.0568 µM (active)
same,GI50,MCF7,0.0184 µM (active)
same,GI50,MDA-MB-231,0.239 µM (active)
same,GI50,MDA-MB-435,< 0.01 µM (active)
same,GI50,MDA-N,< 0.01 µM (active)
same,GI50,MOLT-4,0.0826 µM (active)
same,GI50,Malme-3M,0.0984 µM (active)
same,GI50,NCI-H226,0.252 µM (active)
same,GI50,NCI-H460,< 0.0189 µM (active)
same,GI50,NCI-H522,< 0.01 µM (active)
same,GI50,NCI/ADR-RES,0.0624 µM (active)
same,GI50,OVCAR-3,0.022 µM (active)
same,GI50,OVCAR-4,2.16 µM (inactive)
same,GI50,OVCAR-5,10 µM (inactive)
same,GI50,OVCAR-8,0.266 µM (active)
same,GI50,PC-3,0.0973 µM (active)
same,GI50,RPMI-8226,0.103 µM (active)
same,GI50,RXF 393,0.675 µM (active)
same,GI50,SF-268,0.0685 µM (active)
same,GI50,SF-295,0.0775 µM (active)
same,GI50,SF-539,0.0478 µM (active)
same,GI50,SK-MEL-28,13 µM (inactive)
same,GI50,SK-MEL-5,< 0.0157 µM (active)
same,GI50,SK-OV-3,0.208 µM (active)
same,GI50,SN12C,0.32 µM (active)
same,GI50,SNB-19,8.22 µM (inactive)
same,GI50,SNB-75,0.0718 µM (active)
same,GI50,SR,< 0.01 µM (active)
same,GI50,SW-620,0.0358 µM (active)
same,GI50,T47D,34.8 µM (inactive)
same,GI50,TK-10,20.6 µM (inactive)
same,GI50,U-251,0.4 µM (active)
same,GI50,UACC-257,4.14 µM (inactive)
same,GI50,UACC-62,0.0773 µM (active)
same,GI50,UO-31,0.0403 µM (active)
